ChEMBL document CHEMBL3758145, “Synthesis of 3-acyloxyxanthone derivatives as α-glucosidase inhibitors: A further insight into the 3-substituents' effect” (Bioorg Med Chem, 2016)

Tests used:
Set-up in all cases: species or system Saccharomyces cerevisiae
[1] = Inhibition of yeast alpha-glucosidase using PNP glycoside as substrate preincubated for 30 mins followed by substrate addition measured for 60 secs by spectrophotometric analysis
[2] = Non-competitive inhibition of yeast alpha-glucosidase using PNP glycoside as substrate assessed as enzyme-inhibitor complex preincubated for 30 mins followed by substrate addition measured for 60 secs by Lineweaver-Burk plot analysis
[3] = Non-competitive inhibition of yeast alpha-glucosidase using PNP glycoside as substrate assessed as enzyme-substrate-inhibitor complex preincubated for 30 mins followed by substrate addition measured for 60 secs by Lineweaver-Burk plot analysis

| IC50 [1] [µM] | Ki [2] [µM] | Ki [3] [µM] | SMILES |
| --- | --- | --- | --- |
| 106 |  |  | Cc1ccc(C(=O)Oc2cc(O)c3c(=O)c4ccccc4oc3c2)cc1 |
| 42 |  |  | O=C(Oc1cc(O)c2c(=O)c3ccccc3oc2c1)c1ccccn1 |
| 42.6 |  |  | O=C(Oc1cc(O)c2c(=O)c3ccccc3oc2c1)c1cccnc1 |
| 40 |  |  | OC[C@H]1NC[C@H](O)[C@@H](O)[C@@H]1O [DUVOGLUSTAT] |
| 58.2 |  |  | COc1cc(C(=O)Oc2cc(O)c3c(=O)c4ccccc4oc3c2)cc(OC)c1OC |
| 145 |  |  | O=c1c2ccccc2oc2cc(O)cc(O)c12 |
| 30.6 |  |  | O=C(Oc1cc(O)c2c(=O)c3ccccc3oc2c1)c1ccc2ccccc2c1 |
| 23.7 |  |  | O=C(Oc1cc(O)c2c(=O)c3ccccc3oc2c1)c1ccncc1 |
| 36.1 |  |  | O=C(Oc1cc(O)c2c(=O)c3ccccc3oc2c1)c1ccccc1 |
| 13.3 | 17.8 | 15.5 | O=C(Oc1cc(O)c2c(=O)c3ccccc3oc2c1)c1ccc(O)cc1 |
| 10.6 | 13.3 | 12.1 | CC(C)(C)[Si](C)(C)Oc1ccc(C(=O)Oc2cc(O)c3c(=O)c4ccccc4oc3c2)cc1 |
| 19.8 |  |  | CNc1ccc(C(=O)Oc2cc(O)c3c(=O)c4ccccc4oc3c2)cc1 |
| 21.8 |  |  | O=C(Oc1cc(O)c2c(=O)c3ccccc3oc2c1)c1ccccc1Cl |
| 31.6 |  |  | O=C(Oc1cc(O)c2c(=O)c3ccccc3oc2c1)c1ccccc1F |
| 46.7 |  |  | O=C(/C=C/c1ccccc1)Oc1cc(O)c2c(=O)c3ccccc3oc2c1 |
| 11.6 | 18 | 17.4 | O=C(Oc1cc(O)c2c(=O)c3ccccc3oc2c1)c1cccc(Br)c1 |
| 21.6 |  |  | O=C(Oc1cc(O)c2c(=O)c3ccccc3oc2c1)c1cccc2ccccc12 |
| 23.2 |  |  | COc1ccc(C(=O)Oc2cc(O)c3c(=O)c4ccccc4oc3c2)cc1 |
